Assay results: US20260335263A1, “USE OF TROPIC ACID AND DERIVATIVE THEREOF IN PREPARATION OF DRUG FOR TREATING PSORIASIS” (GUANGDONG PHARMACEUTICAL UNIVERSITY, priority 2022, published 2026)

Columns and labels:
[1] = Solubility observed in structural identification; type: physicochemical
[2] = tested on: Psoriasis in Mice Induced by Imiquimod; test: Histomorphological observation (PASI scoring and day 7 photographs of back skin lesions) of psoriasis in mice induced by imiquimod; type: in vivo, male Balb/c mice; settings: for skin lesion scores (overall score), high-dose: vs high-dose tropic acid, compound III P<0.01, compound IV P<0.05; for skin erythema score, low-dose / skin lesion scores (overall score), low-dose: low-dose 3 mg/kg·d by gavage; for skin erythema score, low-dose: compared with low-dose tropic acid, P<0.01; for skin lesion scores (overall score), low-dose: vs low-dose tropic acid; for therapeutic effect on back skin injury induced by imiquimod: overall conclusion, mouse model of psoriasis; for therapeutic effects compared with tropic acid: summary statement
Excerpt: 110 male Balb/c mice (8-10 weeks, 20-25 g each) were anesthetized by intraperitoneal injection of 10% chloral hydrate, and approximately 2 cm×4 cm of back hair was shaved off. The mice were randomly divided into 11 groups, with 10 mice in each group, including a blank control group, a model group, a positive drug group, a high-dose tropic acid group (A), a low-dose tropic acid group (B), a high-dose 4-hydroxy-α-(hydroxymethyl)phenylacetic acid group (C), a low-dose 4-hydroxy-α-(hydroxymethyl)phenylacetic acid group (D), a high-dose 3,4-dihydroxy-α-(hydroxymethyl)phenylacetic acid group (E), a low-dose 3,4-dihydroxy-α-(hydroxymethyl)phenylacetic acid group (F), a high-dose 3,4,5-trihydroxy-α-(hydroxymethyl)phenylacetic acid group (G), and a low-dose 3,4,5-trihydroxy-α-(hydroxymethyl)phenylacetic acid group (H) of. Except for the blank control group, which received no treatment, all other groups were treated with 50 mg of 5% imiquimod cream daily to prepare a psoriasis mouse model. All groups were administered simultaneously, with dosing twice daily, and the grouping and dosing regimen are detailed in Table 1. The treatment was continued for 6 days. On the 7th day, the skin lesions of the mice were photographed and recorded, after which the mice were euthanized and their back skin was taken for further use.
Histomorphological observation: Starting from the first day of modeling, the degree of erythema, scales, and inflammatory infiltration thickening on the back of mice were scored daily according to the PASI scoring criteria. The PAIS scoring criteria were as follows: 0-none; 1-mild; 2-moderate; 3-severe cases; 4-extremely severe. The more severe the degree of skin damage, the higher the score. The three points were summed to obtain the total PASI score. The average score of each group of mice were then plotted to create a trend line to observe the changes in skin lesions of each group of mice. Digital photography was used to record the skin lesions on the back of the mice in each group on the 7th day for observation and comparison.

[3] = tested on: Psoriasis in Mice Induced by Imiquimod; test: Histopathological examination (HE staining, epidermal thickness) of back skin of mice with imiquimod-induced psoriasis; type: in vivo, male Balb/c mice; settings: day 7, HE staining, compared with the model group
Excerpt: 110 male Balb/c mice (8-10 weeks, 20-25 g each) were anesthetized by intraperitoneal injection of 10% chloral hydrate, and approximately 2 cm×4 cm of back hair was shaved off. […] On the 7th day, the skin lesions of the mice were photographed and recorded, after which the mice were euthanized and their back skin was taken for further use.
Histopathological examination: On the 7th day of modeling, the mice were euthanized, and the back skin of each group of mice was cut and fixed in 4% paraformaldehyde for 24 hours, embedded in paraffin, and sliced into 4 μm sections. HE staining, sealing, and observation of histopathological changes under microscope were performed, and the epidermal thickness was measured using the scale function of the cellSens standard.

[4] = high-dose 6 mg/kg·d by gavage, after 6 days, compared with high-dose tropic acid, P<0.05

Compound: O=C(O)C(CO)c1ccc(O)c(O)c1 (stereo not drawn) [compound III, 3,4-dihydroxy-α-(hydroxymethyl)phenylacetic acid]
- solubility in methanol ([1]; methanol): easily soluble
- solubility in water ([1]; water): easily soluble
- degree of inflammatory infiltration and thickening of the skin [2, 4]: significant decrease
- degree of scale reduction [2, 4]: superior
- skin erythema score, high-dose [2, 4]: significantly reduced
- skin lesion scores (overall score), high-dose ([2]; high-dose 6 mg/kg·d by gavage): superior
- skin erythema score, low-dose ([2]; after 6 days): significantly reduced
- skin lesion scores (overall score), low-dose ([2]; P<0.05): superior
- therapeutic effect on back skin injury induced by imiquimod [2]: best therapeutic effect
- therapeutic effects compared with tropic acid [2]: more significant therapeutic effects than tropic acid

Compound: O=C(O)C(CO)c1cc(O)c(O)c(O)c1 (stereo not drawn) [compound IV, 3,4,5-trihydroxy-α-(hydroxymethyl)phenylacetic acid]
- degree of inflammatory infiltration and thickening of the skin [2, 4]: significant decrease
- degree of scale reduction [2, 4]: superior
- skin lesion scores (overall score), high-dose ([2]; high-dose 6 mg/kg·d by gavage): superior
- skin erythema score, low-dose ([2]; after 6 days): significantly reduced
- skin lesion scores (overall score), low-dose ([2]; P<0.05): superior
- therapeutic effect on back skin injury induced by imiquimod [2]: best therapeutic effect
- therapeutic effects compared with tropic acid [2]: more significant therapeutic effects than tropic acid

Compound: C[C@@H]1C[C@H]2[C@@H]3CCC4=CC(=O)C=C[C@]4(C)[C@@]3(F)[C@@H](O)C[C@]2(C)[C@@]1(O)C(=O)CO [positive drug, dexamethasone]
- incomplete skin keratinization [3]: significantly improvements
- thickness of the stratum spinosum ([3]; positive drug = dexamethasone 5 mg/kg·d by gavage): significantly reduced
